Measured values: patent US6664241B2, “Water-soluble amide derivatives of polyene macrolides and preparation and uses thereof” (Micrologix Biotech Inc., priority 2000, dated 2003)
Converted amounts (≈) assume the structure as drawn.

Columns and labels:
C. albicans = assay: Minimum Inhibitory Concentrations (MICs) against C. albicans, NCCLS M27-A broth dilution; assay type: cell-based; conditions: Candida albicans, read-out: MIC
Method: For each compound synthesized, Minimum Inhibitory Concentrations (MICs) against C. albicans were determined as described in Reference Method for Broth Dilution Antifungal Susceptibility Testing of Yeasts, Approved Standard, NCCLS document M27-A (ISBN 1-56238-328-0), NCCLS, 940 West Valley Road, Suite 1400, Wayne, Pa. 19087, 1997.

[1] = Maximum non-lethal dose (NLD), single intravenous dose in mice; assay type: in vivo, Swiss-Webster male mice; conditions: test compounds as aspartate salts in 5% mannitol, AmB as FUNGIZONE
Method: A variety of the compounds synthesized as described in Section 5, supra, were tested in various in vivo assays, as described below. The results of the various assays are provided in TABLE 3, presented at the end of this section. In all of the in vivo assays described, the test compounds, in the form of the aspartate salts, were formulated in an aqueous vehicle (5% mannitol in sterile water; OSMITROL, Baxter Healthcare, Deerfield, Ill.), followed by appropriate dilutions. The formulations were prepared fresh before dosing.
AmB and AME were also tested for comparison. For AmB, the commercially available FUNGIZONE (Bristol-Meyers Squibb Co.) was used. Reported values are based upon the weight of the AmB active ingredient, not on the basis of the weight of the FUNGIZONE powder. AME was formulated in OSMITROL as described for the test compounds.
Maximum non-lethal dose (NLD) data were obtained for selected compounds. A single intravenous dose was administered to each of four mice (Swiss-Webster male mice; Simonsen Laboratories, Gilroy, Calif.) in several groups. The doses selected were based upon the NLDs of compounds of similar structures. After review of findings, higher or lower doses were administered and a NLD was determined. The results are tabulated in TABLE 3, below (NLD Acute Mice). The values for AmB and AME are provided for comparison

Structure (SMILES) | MIC (C. albicans) | NLD acute mice [1]
CC1[C@H](C)OC(=O)C[C@H](O)C[C@H](O)CC[C@@H](O)[C@H](O)C[C@H](O)C[C@]2(O)C[C@H](O)C(C(=O)NN3CCN(C)CC3)C(C[C@@H](OC3O[C@H](C)[C@@H](O)[C@H](NC[C@@]4(O)OC[C@@H](O)[C@@H](O)[C@@H]4O)[C@@H]3O)/C=C/C=C/C=C/C=C/C=C/C=C/C=C/[C@H](C)[C@H]1O)O2 (stereo partly shown) [Compound 100] | 2 µg/mL (≈ 1.69 µM) | 
CC1[C@H](C)OC(=O)C[C@H](O)C[C@H](O)CC[C@@H](O)[C@H](O)C[C@H](O)C[C@]2(O)C[C@H](O)C(C(=O)NCCc3ccccn3)C(C[C@@H](OC3O[C@H](C)[C@@H](O)[C@H](NC[C@@]4(O)OC[C@@H](O)[C@@H](O)[C@@H]4O)[C@@H]3O)/C=C/C=C/C=C/C=C/C=C/C=C/C=C/[C@H](C)[C@H]1O)O2 (stereo partly shown) [Compound 101] | 4 µg/mL (≈ 3.36 µM) | 
Cc1cc(NC(=O)C2C3C[C@@H](OC4O[C@H](C)[C@@H](O)[C@H](NC[C@@]5(O)OC[C@@H](O)[C@@H](O)[C@@H]5O)[C@@H]4O)/C=C/C=C/C=C/C=C/C=C/C=C/C=C/[C@H](C)[C@@H](O)C(C)[C@H](C)OC(=O)C[C@H](O)C[C@H](O)CC[C@@H](O)[C@H](O)C[C@H](O)C[C@](O)(C[C@@H]2O)O3)no1 (stereo partly shown) [Compound 102] | 2.7 µg/mL (≈ 2.31 µM) | 
CC1[C@H](C)OC(=O)C[C@H](O)C[C@H](O)CC[C@@H](O)[C@H](O)C[C@H](O)C[C@]2(O)C[C@H](O)C(C(=O)NCC(O)CO)C(C[C@@H](OC3O[C@H](C)[C@@H](O)[C@H](NC[C@@]4(O)OC[C@@H](O)[C@@H](O)[C@@H]4O)[C@@H]3O)/C=C/C=C/C=C/C=C/C=C/C=C/C=C/[C@H](C)[C@H]1O)O2 (stereo partly shown) [Compound 105] | 2 µg/mL (≈ 1.73 µM) | 
CC1[C@H](C)OC(=O)C[C@H](O)C[C@H](O)CC[C@@H](O)[C@H](O)C[C@H](O)C[C@]2(O)C[C@H](O)C(C(=O)NN3CCN(C)CC3)C(C[C@@H](OC3O[C@H](C)[C@@H](O)[C@H](NC[C@@]4(O)OC[C@@H](O)[C@H](O)[C@@H]4O)[C@@H]3O)/C=C/C=C/C=C/C=C/C=C/C=C/C=C/[C@H](C)[C@H]1O)O2 (stereo partly shown) [Compound 108] | 4 µg/mL (≈ 3.38 µM) | 
CC1[C@H](C)OC(=O)C[C@H](O)C[C@H](O)CC[C@@H](O)[C@H](O)C[C@H](O)C[C@]2(O)C[C@H](O)C(C(=O)NCCc3ccccn3)C(C[C@@H](OC3O[C@H](C)[C@@H](O)[C@H](NC[C@@]4(O)OC[C@@H](O)[C@H](O)[C@@H]4O)[C@@H]3O)/C=C/C=C/C=C/C=C/C=C/C=C/C=C/[C@H](C)[C@H]1O)O2 (stereo partly shown) [Compound 109] | 2 µg/mL (≈ 1.68 µM) | 
CC1[C@H](C)OC(=O)C[C@H](O)C[C@H](O)CC[C@@H](O)[C@H](O)C[C@H](O)C[C@]2(O)C[C@H](O)C(C(=O)NCCc3ccccn3)C(C[C@@H](OC3O[C@H](C)[C@@H](O)[C@H](NC[C@@]4(O)OC[C@@H](O)[C@@H](OC5O[C@H](CO)[C@@H](O)[C@H](O)[C@H]5O)[C@@H]4O)[C@@H]3O)/C=C/C=C/C=C/C=C/C=C/C=C/C=C/[C@H](C)[C@H]1O)O2 (stereo partly shown) [Compound 116] | 8 µg/mL (≈ 5.91 µM) | 
CC1[C@H](C)OC(=O)C[C@H](O)C[C@H](O)CC[C@@H](O)[C@H](O)C[C@H](O)C[C@]2(O)C[C@H](O)C(C(=O)NCC(O)C(O)C(O)C(O)CO)C(C[C@@H](OC3O[C@H](C)[C@@H](O)[C@H](NC[C@@]4(O)OC[C@@H](O)[C@@H](OC5O[C@H](CO)[C@@H](O)[C@H](O)[C@H]5O)[C@@H]4O)[C@@H]3O)/C=C/C=C/C=C/C=C/C=C/C=C/C=C/[C@H](C)[C@H]1O)O2 (stereo partly shown) [Compound 117] | 8 µg/mL (≈ 5.67 µM) | 
CC1[C@H](C)OC(=O)C[C@H](O)C[C@H](O)CC[C@@H](O)[C@H](O)C[C@H](O)C[C@]2(O)C[C@H](O)C(C(=O)NCC(O)CO)C(C[C@@H](OC3O[C@H](C)[C@@H](O)[C@H](NC[C@@]4(O)OC[C@@H](O)[C@@H](OC5O[C@H](CO)[C@@H](O)[C@H](O)[C@H]5O)[C@@H]4O)[C@@H]3O)/C=C/C=C/C=C/C=C/C=C/C=C/C=C/[C@H](C)[C@H]1O)O2 (stereo partly shown) [Compound 119] | 8 µg/mL (≈ 6.05 µM) | 
CC1[C@H](C)OC(=O)C[C@H](O)C[C@H](O)CC[C@@H](O)[C@H](O)C[C@H](O)C[C@]2(O)C[C@H](O)C(C(=O)NCCN3CCCCC3)C(C[C@@H](OC3O[C@H](C)[C@@H](O)[C@H](NC[C@@]4(O)OC[C@@H](O)[C@@H](OC5O[C@H](CO)[C@@H](O)[C@H](O)[C@H]5O)[C@@H]4O)[C@@H]3O)/C=C/C=C/C=C/C=C/C=C/C=C/C=C/[C@H](C)[C@H]1O)O2 (stereo partly shown) [Compound 120] | 8 µg/mL (≈ 5.89 µM) | 
CC1[C@H](C)OC(=O)C[C@H](O)C[C@H](O)CC[C@@H](O)[C@H](O)C[C@H](O)C[C@]2(O)C[C@H](O)C(C(=O)NCCc3cccs3)C(C[C@@H](OC3O[C@H](C)[C@@H](O)[C@H](NC[C@@]4(O)OC[C@@H](O)[C@@H](OC5O[C@H](CO)[C@@H](O)[C@H](O)[C@H]5O)[C@@H]4O)[C@@H]3O)/C=C/C=C/C=C/C=C/C=C/C=C/C=C/[C@H](C)[C@H]1O)O2 (stereo partly shown) [Compound 121] | 8 µg/mL (≈ 5.89 µM) | 
CC1[C@H](C)OC(=O)C[C@H](O)C[C@H](O)CC[C@@H](O)[C@H](O)C[C@H](O)C[C@]2(O)C[C@H](O)C(C(=O)N[C@H]3C(O)O[C@H](CO)[C@@H](O)[C@@H]3O)C(C[C@@H](OC3O[C@H](C)[C@@H](O)[C@H](N)[C@@H]3O)/C=C/C=C/C=C/C=C/C=C/C=C/C=C/[C@H](C)[C@H]1O)O2 (stereo partly shown) [Compound 123] | 5.3 µg/mL (≈ 4.88 µM) | 32 mg/kg
CC1[C@H](C)OC(=O)C[C@H](O)C[C@H](O)CC[C@@H](O)[C@H](O)C[C@H](O)C[C@]2(O)C[C@H](O)C(C(=O)N[C@H]3C(O)O[C@H](CO)[C@H](O)[C@@H]3O)C(C[C@@H](OC3O[C@H](C)[C@@H](O)[C@H](N)[C@@H]3O)/C=C/C=C/C=C/C=C/C=C/C=C/C=C/[C@H](C)[C@H]1O)O2 (stereo partly shown) [Compound 124] | 1 µg/mL (≈ 0.921 µM) | 16 mg/kg
CC1[C@H](C)OC(=O)C[C@H](O)C[C@H](O)CC[C@@H](O)[C@H](O)C[C@H](O)C[C@]2(O)C[C@H](O)C(C(=O)N[C@@H]3C(O)O[C@H](CO)[C@@H](O)[C@@H]3O)C(C[C@@H](OC3O[C@H](C)[C@@H](O)[C@H](N)[C@@H]3O)/C=C/C=C/C=C/C=C/C=C/C=C/C=C/[C@H](C)[C@H]1O)O2 (stereo partly shown) [Compound 125] | 1 µg/mL (≈ 0.921 µM) | 8 mg/kg
CC1[C@H](C)OC(=O)C[C@H](O)C[C@H](O)CC[C@@H](O)[C@H](O)C[C@H](O)C[C@]2(O)C[C@H](O)C(C(=O)NCC(O)C(O)C(O)C(O)CO)C(C[C@@H](OC3O[C@H](C)[C@@H](O)[C@H](N)[C@@H]3O)/C=C/C=C/C=C/C=C/C=C/C=C/C=C/[C@H](C)[C@H]1O)O2 (stereo partly shown) [Compound 126] | 3 µg/mL (≈ 2.76 µM) | 
CC1[C@H](C)OC(=O)C[C@H](O)C[C@H](O)CC[C@@H](O)[C@H](O)C[C@H](O)C[C@]2(O)C[C@H](O)C(C(=O)N3CCOCC3)C(C[C@@H](OC3O[C@H](C)[C@@H](O)[C@H](NC[C@@]4(O)OC[C@@H](O)[C@@H](O)[C@@H]4O)[C@@H]3O)/C=C/C=C/C=C/C=C/C=C/C=C/C=C/[C@H](C)[C@H]1O)O2 (stereo partly shown) [Compound 131] | 4 µg/mL (≈ 3.46 µM) | 5 mg/kg
CC1[C@H](C)OC(=O)C[C@H](O)C[C@H](O)CC[C@@H](O)[C@H](O)C[C@H](O)C[C@]2(O)C[C@H](O)C(C(=O)N3CCOCC3)C(C[C@@H](OC3O[C@H](C)[C@@H](O)[C@H](NC[C@@]4(O)OC[C@@H](O)[C@H](O)[C@@H]4O)[C@@H]3O)/C=C/C=C/C=C/C=C/C=C/C=C/C=C/[C@H](C)[C@H]1O)O2 (stereo partly shown) [Compound 137] | 2 µg/mL (≈ 1.73 µM) | 5 mg/kg
